One test relates to UT-A1-mIMCD3 cells. Briefly: cAMP in UT-A1-mIMCD3 cells. The settings on record: 1 μM vasopressin (AVP) for 10 min; p<0.05. In kind it is cell-based. Here is the method: FIG. 5 illustrates cAMP in UT-A1-mIMCD3 cells after treatment with 1 μM vasopressin (AVP) for 10 min, *=p<0.05.
Test [1] can be described thus: Urine osmolality in rats after IP metformin. In kind it is in vivo, rat. Particulars: rats with normal water or water loaded for 1 week; 4 h after IP injection of metformin. The source says: (§1) Rats with normal water (blue); water loaded for 1 week (red). Mice fed lithium for 14 days (green); V2R−/− mice (brown).
Test [2] has as its system AQP2. Briefly: Apical plasma membrane AQP2 in IMCDs of treated rats. It counts as in vivo, rat. Particulars: 4 h, 100 mg/kg IP. An excerpt: 400×, HRP/Dab with hematoxylin stained nuclei.
Test [3] is described as follows: Urine osmolality in V2R knock-out mice (model of congenital NDI). It counts as in vivo. Particulars: 4 h after IP injection of metformin.
Excerpt: as §1
(§2) Preliminary data indicates AMPK phosphorylates both the UT-A1 and AQP2 proteins, both in vitro (FIG. 3) and in native rat IMCD suspensions (FIG. 4). […]. Thus, AMPK may mimic by which vasopressin increases urine concentrating ability.

Test [4] deals with AQP2. Kind of test: AQP2 phosphorylation in rat inner medulla. An excerpt: Left: immune-precipitated 32P-AQP2; Right: phospho S256-AQP2.
Test [5] can be described thus: Urine osmolality in lithium-treated mice. It counts as in vivo. The settings on record: mice fed lithium for 14 days; 4 h after IP injection of metformin.
Excerpt: as §1

The test system of a further test is UT-A1. Kind of test: UT-A1 phosphorylation in rat inner medullary tissue. Particulars: AMPK stimulation with metformin, p<0.05.
Excerpt: as §2

Molecules are shown by their SMILES.

With `NC(=O)CC[C@@H]1NC(=O)[C@H](Cc2ccccc2)NC(=O)[C@H](Cc2ccc(O)cc2)NC(=O)[C@@H](N)CSSC[C@@H](C(=O)N2CCC[C@H]2C(=O)N[C@@H](CCCN=C(N)N)C(=O)NCC(N)=O)NC(=O)[C@H](CC(N)=O)NC1=O` [Vasopressin, vasopressin], in the test with UT-A1-mIMCD3 cells, the cAMP entry is given as “increases”.

Take `CN(C)C(=N)N=C(N)N` [metformin]: the urine osmolality entry in test [1], in test [3] and in test [5] was “increases” throughout. Further, in the test with AQP2 [2], the “apical plasma membrane AQP2” value was “increases”. The pS256-AQP2 entry in the test on AQP2 [4] (rat inner medulla, 10^-4 M metformin with V2R inhibited using 10^-7 M tolvaptan) is listed as “increases”. Moreover, the AQP2 phosphorylation result with AQP2 [4] (rat inner medullary tissue, AMPK stimulation with metformin, p<0.05) was “undergo phosphorylation”. Moreover, the UT-A1 phosphorylation entry in the test with UT-A1 is given as “undergo phosphorylation”.

With `Cc1ccccc1C(=O)Nc1ccc(C(=O)N2CCCC(O)c3cc(Cl)ccc32)c(C)c1` (stereo not drawn) [tolvaptan], the “AQP2 phosphorylation (immune-precipitated 32P-AQP2)” value with AQP2 [4] (native rat IMCDs, 10^-7 M tolvaptan & 10^-4 M metformin, compared to metformin alone) is on record as “increased”.

Values taken from patent US9827222B2, “Treating or preventing nephrogenic diabetes insipidus” (Emory University, priority 2013, dated 2017).
